Measured values reported in ChEMBL document CHEMBL1127135, “Synthesis and biological properties of 3-[()-2-(1,2,3-Thiadiazolyl)ethenyl]-substituted cephalosporins and related compounds: new oral cephalosporins” (Bioorg Med Chem Lett, 1993).
Converted amounts (≈) assume the structure as drawn.

Experiments:
Staphylococcus aureus [1] = assay: Antibacterial activity against Staphylococcus aureus 209P-JC was determined; type: functional
Proteus mirabilis = assay: Antibacterial activity against Proteus mirabilis IFO3849 was determined; type: functional
Enterococcus hirae = assay: Antibacterial activity against Enterococcus hirae ATCC 8043 was determined; type: functional
Enterobacter cloacae = assay: Antibacterial activity against Enterobacter cloacae 963 was determined; type: functional
Escherichia coli [2] = assay: Antibacterial activity against Escherichia coli ATCC 25922 was determined; type: functional
Staphylococcus aureus [3] = assay: Antibacterial activity against Staphylococcus aureus ATCC 25923 was determined; type: functional
Proteus vulgaris = assay: Antibacterial activity against Proteus vulgaris HX-19 was determined; type: functional
Providencia rettgeri = assay: Antibacterial activity against Providencia rettgeri IFO3850 was determined; type: functional
Moraxella catarrhalis [4] = assay: Antibacterial activity against M(B). catarrhalis AtCC 25238 was determined; type: functional
Klebsiella aerogenes = assay: Antibacterial activity against Enterobacter aerogenes IFO 13048 was determined; type: functional
Micrococcus luteus = assay: Antibacterial activity against Micrococcus luteus ATCC 9341 was determined; type: functional
Serratia marcescens = assay: Antibacterial activity against Serratia marcescens IID 618 was determined; type: functional
Morganella morganii [5] = assay: Antibacterial activity against Morganella morganii IID 602 was determined; type: functional
Klebsiella pneumoniae = assay: Antibacterial activity against Klebsiella pneumoniae IFO 3317 was determined; type: functional
Escherichia coli [6] = assay: Antibacterial activity against Escherichia coli NIHJ JC-2 was determined; type: functional
[7] = test system: Staphylococcus epidermidis; assay: Antibacterial activity against Staphylococcus epidermidis IID 866 was determined; type: functional
Pseudomonas aeruginosa = assay: Antibacterial activity against Pseudomonas aeruginosa NCTC 10490 was determined; type: functional
Staphylococcus aureus [8] = assay: Antibacterial activity against Staphylococcus aureus Smith was determined; type: functional
[9] = Evaluated for pharmacokinetic parameter Cmax in rabbit at the dose 20 mg/kg; type: ADME, organism-based, Oryctolagus cuniculus; design: dose 20 mg/kg; conditions: in vivo
[10] = Evaluated for pharmacokinetic parameter tmax in rabbit at the dose 20 mg/kg; type: ADME, organism-based, Oryctolagus cuniculus; design: dose 20 mg/kg; conditions: in vivo
[11] = Evaluated for pharmacokinetic parameter half-life in mouse at the dose 20 mg/kg; type: ADME, organism-based; design: dose 20 mg/kg; conditions: in vivo
[12] = Evaluated for pharmacokinetic parameter area under curve in rabbit at the dose 20 mg/kg (0-4 hr ); type: ADME, organism-based, Oryctolagus cuniculus; design: time < 4 hr, dose 20 mg/kg; conditions: in vivo
Streptococcus pneumoniae = assay: Antibacterial activity against Streptococcus pneumoniae IID 553 was determined; type: functional
[13] = Evaluated for pharmacokinetic parameter tmax in mouse at the dose 20 mg/kg was determined; type: ADME, organism-based; design: dose 20 mg/kg; conditions: in vivo
[14] = Evaluated for pharmacokinetic parameter tmax in rat at the dose 50 mg/kg; type: ADME, organism-based; design: dose 50 mg/kg; conditions: in vivo
[15] = Evaluated for pharmacokinetic parameter urine recovery in rabbit at the dose 20 mg/kg (0-24 hr); type: ADME, organism-based, Oryctolagus cuniculus; design: dose 20 mg/kg; conditions: read-out: UR
[16] = Evaluated for pharmacokinetic parameter urine recovery in mouse at the dose 20 mg/kg (0-24 hr); type: ADME, organism-based; design: dose 20 mg/kg; conditions: read-out: UR
[17] = Evaluated for pharmacokinetic parameter half-life in rat at the dose 50 mg/kg; type: ADME, organism-based; design: dose 50 mg/kg; conditions: in vivo
Haemophilus influenzae = assay: Antibacterial activity against Haemophilus influenzae ATCC 19418 was determined; type: functional
[18] = Evaluated for pharmacokinetic parameter area under curve in mouse at the dose 20 mg/kg (0-4 hr ); type: ADME, organism-based; design: time < 4 hr, dose 20 mg/kg; conditions: in vivo
Moraxella catarrhalis [19] = assay: Antibacterial activity against M(B). catarrhalis ATCC 25238 was determined; type: functional
[20] = Evaluated for pharmacokinetic parameter Cmax in rat at the dose 50 mg/kg; type: ADME, organism-based; design: dose 50 mg/kg; conditions: in vivo
[21] = Evaluated for pharmacokinetic parameter Cmax in mouse at the dose 20 mg/kg; type: ADME, organism-based; design: dose 20 mg/kg; conditions: in vivo
[22] = Evaluated for pharmacokinetic parameter half-life in rabbit at the dose 20 mg/kg; type: ADME, organism-based, Oryctolagus cuniculus; design: dose 20 mg/kg; conditions: in vivo
[23] = Evaluated for pharmacokinetic parameter urine recovery in rat at the dose 50 mg/kg (0-24 hr); type: ADME, organism-based; design: dose 50 mg/kg; conditions: read-out: UR
Morganella morganii [24] = assay: Antibacterial activity against Morganella morganii IID 602; type: functional
[25] = Evaluated for pharmacokinetic parameter area under curve in rat at the dose 50 mg/kg (0-8 hr ); type: ADME, organism-based; design: time < 8 hr, dose 50 mg/kg; conditions: in vivo

Row | SMILES | MIC (Staphylococcus aureus [1]) [µg/mL] | MIC (Proteus mirabilis) [µg/mL] | MIC (Enterococcus hirae) [µg/mL] | MIC (Enterobacter cloacae) [µg/mL] | MIC (Escherichia coli [2]) [µg/mL] | MIC (Staphylococcus aureus [3]) [µg/mL] | MIC (Proteus vulgaris) [µg/mL] | MIC (Providencia rettgeri) [µg/mL] | MIC (Klebsiella aerogenes) [µg/mL] | MIC (Micrococcus luteus) [µg/mL] | MIC (Serratia marcescens) [µg/mL] | MIC (Klebsiella pneumoniae) [µg/mL] | MIC (Escherichia coli [6]) [µg/mL] | MIC [7] [µg/mL] | MIC (Pseudomonas aeruginosa) [µg/mL] | MIC (Staphylococcus aureus [8]) [µg/mL] | other results
1 | CO/N=C(\C(=O)NC1C(=O)N2C(C(=O)O)=C(/C=C\c3csnn3)CSC12)c1csc(N)n1 (stereo not drawn) | 0.78 (≈ 1.58 µM) | 0.1 (≈ 0.203 µM) | 100 (≈ 203 µM) | 0.39 (≈ 0.79 µM) | 0.39 (≈ 0.79 µM) | 0.78 (≈ 1.58 µM) | ≤ 0.006 | ≤ 0.006 | 0.78 (≈ 1.58 µM) | 0.05 (≈ 0.101 µM) | 0.39 (≈ 0.79 µM) | 0.012 (≈ 0.0243 µM) | 0.39 (≈ 0.79 µM) | 0.2 (≈ 0.405 µM) | 50 (≈ 101 µM) | 0.39 (≈ 0.79 µM) | MIC (Moraxella catarrhalis [4]): 0.025 µg/mL (≈ 0.0507 µM); MIC (Morganella morganii [5]): 0.1 µg/mL (≈ 0.203 µM)
2 | Nc1nc(/C(=N/O)C(=O)NC2C(=O)N3C(C(=O)O)=C(/C=C\c4csnn4)CSC23)cs1 (stereo not drawn) | 0.1 (≈ 0.209 µM) | 0.05 (≈ 0.104 µM) | 12.5 (≈ 26.1 µM) | 0.2 (≈ 0.417 µM) | 0.1 (≈ 0.209 µM) | 0.39 (≈ 0.813 µM) | 0.05 (≈ 0.104 µM) | ≤ 0.006 | 0.2 (≈ 0.417 µM) | 0.012 (≈ 0.025 µM) | 0.39 (≈ 0.813 µM) | 0.012 (≈ 0.025 µM) | 0.1 (≈ 0.209 µM) | 0.05 (≈ 0.104 µM) | > 100 | 0.1 (≈ 0.209 µM) | Cmax [9]: 2000 ng/mL; Tmax [10]: 2 h; half-life [11]: 0.7 h; AUC at 4 h [12]: 9700 ng·h/mL; MIC (Streptococcus pneumoniae): 0.05 µg/mL (≈ 0.104 µM); Tmax [13]: 2 h; Tmax [14]: 2 h; dose excreted [15]: 17.4%; dose excreted [16]: 1.9%; half-life [17]: 4.4 h; MIC (Haemophilus influenzae): 0.05 µg/mL (≈ 0.104 µM); AUC at 4 h [18]: 4700 ng·h/mL; MIC (Moraxella catarrhalis [19]): 0.05 µg/mL (≈ 0.104 µM); Cmax [20]: 6000 ng/mL; Cmax [21]: 1500 ng/mL; half-life [22]: 2.2 h; dose excreted [23]: 3.5%; MIC (Morganella morganii [24]): 0.025 µg/mL (≈ 0.0521 µM); AUC at 8 h [25]: 19800 ng·h/mL
